According to the NIST ThermoML archive (doi:10.1016/j.jct.2007.09.009):
Values joined by “and” are separate entries in the source; they are usually repeats but may differ in a detail not shown here. Equal values may be shown once. Numbers after ± are expanded uncertainties.

Assay: xn = mol fraction of the nth substance listed
Settings: 313.15 K, 101 kPa, Liquid, Direct dilatometry

CC(=O)N(C)C [N,N-dimethylethanamide] + O
Settings | excess molar volume
x1 = 0.0092 | -3.79e-08 ± 3.2e-09 m3/mol
x1 = 0.0196 | -8.59e-08 ± 3.2e-09 m3/mol
x1 = 0.03 | -1.402e-07 ± 3.3e-09 m3/mol
x1 = 0.0556 | -2.881e-07 ± 3.5e-09 m3/mol
x1 = 0.0704 | -3.778e-07 ± 3.6e-09 m3/mol
x1 = 0.0823 | -4.496e-07 ± 3.7e-09 m3/mol
x1 = 0.0853 | -4.67e-07 ± 3.6e-09 m3/mol
x1 = 0.091 | -4.98e-07 ± 3.7e-09 m3/mol
x1 = 0.0968 | -5.344e-07 ± 3.8e-09 m3/mol
x1 = 0.0981 | -5.428e-07 ± 3.8e-09 m3/mol
x1 = 0.1063 | -5.918e-07 ± 3.8e-09 m3/mol
x1 = 0.1088 | -6.146e-07 ± 3.8e-09 m3/mol
x1 = 0.1167 | -6.527e-07 ± 3.8e-09 m3/mol
x1 = 0.1258 | -7.063e-07 ± 3.9e-09 m3/mol
x1 = 0.1364 | -7.653e-07 ± 3.9e-09 m3/mol
x1 = 0.1478 | -8.283e-07 ± 4e-09 m3/mol
x1 = 0.1603 | -8.946e-07 ± 4e-09 m3/mol
x1 = 0.1651 | -9.21e-07 ± 4e-09 m3/mol
x1 = 0.1728 | -9.553e-07 ± 4.1e-09 m3/mol and -9.577e-07 ± 4.1e-09 m3/mol
x1 = 0.1851 | -1.017e-06 ± 4.1e-09 m3/mol
x1 = 0.1902 | -1.039e-06 ± 4.1e-09 m3/mol
x1 = 0.2039 | -1.098e-06 ± 4.2e-09 m3/mol
x1 = 0.2221 | -1.172e-06 ± 4.2e-09 m3/mol
x1 = 0.2379 | -1.229e-06 ± 4.3e-09 m3/mol
x1 = 0.2514 | -1.273e-06 ± 4.3e-09 m3/mol
x1 = 0.2642 | -1.315e-06 ± 4.3e-09 m3/mol
x1 = 0.2665 | -1.318e-06 ± 4.3e-09 m3/mol
x1 = 0.2718 | -1.334e-06 ± 4.4e-09 m3/mol
x1 = 0.2773 | -1.349e-06 ± 4.4e-09 m3/mol
x1 = 0.2787 | -1.35e-06 ± 4.4e-09 m3/mol
x1 = 0.2883 | -1.374e-06 ± 4.4e-09 m3/mol
x1 = 0.2987 | -1.397e-06 ± 4.4e-09 m3/mol
x1 = 0.31 | -1.418e-06 ± 4.4e-09 m3/mol
x1 = 0.3216 | -1.44e-06 ± 4.5e-09 m3/mol
x1 = 0.3377 | -1.463e-06 ± 4.5e-09 m3/mol
x1 = 0.352 | -1.479e-06 ± 4.5e-09 m3/mol
x1 = 0.3679 | -1.493e-06 ± 4.5e-09 m3/mol
x1 = 0.3759 | -1.501e-06 ± 4.5e-09 m3/mol
x1 = 0.3782 | -1.499e-06 ± 4.5e-09 m3/mol
x1 = 0.3812 | -1.502e-06 ± 4.5e-09 m3/mol
x1 = 0.3884 | -1.506e-06 ± 4.5e-09 m3/mol
x1 = 0.3918 | -1.505e-06 ± 4.5e-09 m3/mol
x1 = 0.3948 | -1.508e-06 ± 4.5e-09 m3/mol
x1 = 0.4047 | -1.511e-06 ± 4.5e-09 m3/mol
x1 = 0.4141 | -1.511e-06 ± 4.5e-09 m3/mol
x1 = 0.4248 | -1.511e-06 ± 4.5e-09 m3/mol
x1 = 0.4402 | -1.507e-06 ± 4.5e-09 m3/mol
x1 = 0.4583 | -1.497e-06 ± 4.5e-09 m3/mol
x1 = 0.47 | -1.489e-06 ± 4.5e-09 m3/mol
x1 = 0.4759 | -1.487e-06 ± 4.5e-09 m3/mol
x1 = 0.4881 | -1.473e-06 ± 4.5e-09 m3/mol
x1 = 0.4976 | -1.464e-06 ± 4.5e-09 m3/mol
x1 = 0.5257 | -1.43e-06 ± 4.4e-09 m3/mol
x1 = 0.5546 | -1.38e-06 ± 4.4e-09 m3/mol
x1 = 0.5961 | -1.295e-06 ± 4.3e-09 m3/mol
x1 = 0.6483 | -1.173e-06 ± 4.2e-09 m3/mol
x1 = 0.6819 | -1.082e-06 ± 4.1e-09 m3/mol
x1 = 0.7273 | -9.449e-07 ± 4e-09 m3/mol
x1 = 0.732 | -9.375e-07 ± 4e-09 m3/mol
x1 = 0.755 | -8.613e-07 ± 3.9e-09 m3/mol
x1 = 0.7743 | -8.015e-07 ± 3.9e-09 m3/mol
x1 = 0.7939 | -7.378e-07 ± 3.8e-09 m3/mol
x1 = 0.8089 | -6.896e-07 ± 3.7e-09 m3/mol
x1 = 0.8158 | -6.653e-07 ± 3.7e-09 m3/mol
x1 = 0.8331 | -6.07e-07 ± 3.7e-09 m3/mol
x1 = 0.8622 | -5.075e-07 ± 3.6e-09 m3/mol
x1 = 0.8823 | -4.342e-07 ± 3.6e-09 m3/mol
x1 = 0.884 | -4.256e-07 ± 3.6e-09 m3/mol
x1 = 0.9064 | -3.494e-07 ± 3.4e-09 m3/mol
x1 = 0.9258 | -2.754e-07 ± 3.3e-09 m3/mol
x1 = 0.9539 | -1.863e-07 ± 3.7e-09 m3/mol
x1 = 0.9568 | -1.596e-07 ± 3.7e-09 m3/mol
x1 = 0.9716 | -1.062e-07 ± 3.2e-09 m3/mol
